Experiments:
[1] = system: ALDHhigh fractions in SUM-159PT cells; test: ALDH activity assay (ALDEFLUOR); type: cell-based; conditions: 4 µM
Protocol: Cells were treated with B591 for 24 h, then the cell suspension was incubated with 20 μl of CD44-APC (#559942, BD Pharmingen, Franklin Lakes, NJ, USA) and 20 μl of CD24-PE (#555428, BD Pharmingen) antibodies for 30 min in dark at 4 ℃. Phenotype was detected by BD FACSCalibur, and data was analyzed with Flowjo. ALDH activity was analyzed with ALDEFLUOR Kit (STEMCELL Technologies, Vancouver, BC, Canada) according to the manufacture’s protocol.

[2] = system: MDA-MB-231 and SUM-159PT mammospheres; test: Secondary mammosphere-formation assay; type: cell-based, human; conditions: primary mammospheres treated 48 h, then passaged
Protocol: Cells were treated with indicated agents for 48 h, and cells were harvested and processed for apoptosis assay using the PE-Annexin V/7-AAD Apoptosis Detection Kit. d Representative flow cytometry plots of apoptosis inducing activity of B591 (10 μM) and paclitaxel (10 nM) on monolayer and mammosphere MDA-MB-231 cells. e B591 preferentially targeted CD44^high/CD24^low cells. Cells were treated with B591 or paclitaxel for 2 days. Following a 4-day recovery period, cells were co-stained with CD44 and CD24 antibodies and subjected to FACS analysis. Representative flow cytometry plots show the effect of B591 on CD44^high/CD24^low population in MDA-MB-231 cells in vitro. f B591 decreased mammosphere forming efficiency. Primary MDA-MB-231 mammospheres were treated with B591 or paclitaxel for 48 h. Results of the secondary mammosphere-formation assay are shown. Scale bar represents 40 μm. g B591 decreased the expression of CSC markers in MDA-MB-231 cells. Cells were treated with B591 or paclitaxel for 2 days. […]
In the mammosphere assay, MDA-MB-231 (Fig. 3f) and SUM-159PT (Supplementary Fig. S10D) cells were treated with B591 or paclitaxel, and the mammospheres were collected and subsequently passaged. Secondary Mammosphere-forming activity was determined, which reflects the self-renewal capability of CSCs. […]

[3] = system: primary tumor cells dissociated from MDA-MB-231 xenografts replanted into NOD/SCID mice; test: Limiting dilution assay of cells from treated MDA-MB-231 xenografts; type: in vivo; conditions: for number of tumor-bearing mice (number of recipient mice): cells from 16 mg/kg group, 3 months later
Protocol: Fig. 5 B591 abolishes tumor growth in vivo by eliminating CSCs. a MDA-MB-231 xenografts were treated with vehicle or B591 for 2 weeks, then the residual tumor tissue was harvested and dissociated into single cells for subsequent CSCs assays according with the flow chart. b–d Tumor weight and mice body weight were measured every 2 days during treatment. In the end of treatment, tumor tissues were collected and weighted (n = 8). e The CSCs markers of tumor cells were analyzed by flow cytometry. Only the live and non-mouse cell population was gated and analyzed. Data from three mice were plotted. f Mammosphere formation assay was carried out with the single cells. The relative mammosphere-formation ability is shown as percentage, and data represent mean ± SD. g The single cells from vehicle and 16 mg/kg of B591 group were replanted into NOD/SCID mice according to the indicating number, and 3 months later, tumors were counted for calculating the tumor-initiating frequency. h The CSCs markers and the downstream substrates of PI3K pathway were analyzed using the lysates from the primary xenografts by western blot analysis. ^**p < 0.01, difference versus vehicle-treated control group TEXT PRINTED IN THE PICTURE: (G) B591: 3(5) (Cell number: 200 000); 2(5) (Cell number: 20 000); 0(5) (Cell number: 2 000); 0(5) (Cell number: 200); TIF: 1/145 000
The primary tumor cells dissociated from xenografts were injected into the mammary fat pad of NOD/SCID mice in limiting dilutions.
In MDA-MB-231 xenografts experiment, 1 × 10^6 cells were incubated into the mammary fat pad of mice orthotopically. When the volume of tumor reached above 50 mm^3, the mice were randomly divided into three groups for introperitoneal (i.p.) injection with vehicle, 4 mg/kg and 16 mg/kg B591. The tumor volume and the body weight of mice were measured during the 2-weeks treatment. In the end of treatment, the mice were killed, and the tumor tissues were dissected and dissociated into single cell suspension with Dispase II (Roche, Basel, Switzerland) according with the manufacture’s protocol. Then these single cells were used for CSCs phenotype assay, ALDH activity assay, mammosphere formation assay and limiting dilution assay in vivo as described above.

RD cells = test: Apoptosis assay (Annexin V-FITC); type: cell-based, human; conditions: 48 h
Protocol: Cells were seeded in six-well plates at a density of 2×10^5 cells per well and kept overnight at 37℃ humidified incubator with 5% CO2. The next day, cells were treated with B591 for 48 h. Cells were then collected and stained using Annexin V-FITC Apoptosis Detection Kit I (BD Pharmingen™, Franklin Lakes, NJ, USA) according to manufacturer’s instruction. In brief, cells were washed with cold PBS twice and with binding buffer once, about 1×10^5 cells were resuspended in 100 μl Annexin-V binding buffer, followed by incubation with FITC conjugated Annexin V and propidium iodide (PI) for 15 min at room temperature in the dark. The apoptosis assay was performed by using BD FACSCalibur flow cytometry.
Supplementary Fig. S8. B591 induces G0/G1 cell cycle arrest and apoptosis in tumor cells. […] The cells were harvested and analyzed for cell cycle profile. […] The cells were harvested and processed for apoptosis assay using the Annexin V-FITC Apoptosis Detection Kit. (D) Quantification of flow cytometry analysis of apoptosis. Results were presented as mean ± SD (n = 3). ^***p <0.001, difference versus DMSO-treated control group.

Compound: Cc1cc2c(cc1C)[n+](Cc1ccccc1Br)cn2Cc1ccc2c(c1)CCO2.[Br-] [B591, 3-(2-bromobenzyl)-1-((2,3-dihydrobenzofuran-5-yl)methyl) -5,6-dimethyl-1H-benzo[d]imidazol-3-ium bromide]
- Reduction of ALDHhigh fractions [1]: 90%
- Secondary mammosphere-forming ability [2]: strikingly suppressed
- number of tumor-bearing mice (number of recipient mice) ([3]; cell number 2 000): 0(5)
- number of tumor-bearing mice (number of recipient mice) ([3]; cell number 20 000): 2(5)
- number of tumor-bearing mice (number of recipient mice) ([3]; cell number 200 000): 3(5)
- number of tumor-bearing mice (number of recipient mice) ([3]; cell number 200): 0(5)
- Reduction of tumor-initiating frequency versus vehicle ([3]; cells from B591-treated tumors): sevenfold reduction
- Apoptosis induction (RD cells): significant apoptosis inducing effect
